{"source": "ChEMBL document CHEMBL4813973", "about": "“Discovery of novel N-benzylbenzamide derivatives as tubulin polymerization inhibitors with potent antitumor activities” (Eur J Med Chem, 2021)", "key": {"A-431 [1]": {"system": "A-431", "experiment": "Induction of apoptosis in human A-431 cells assessed as nuclear fragmentation at 7.5 to 30 nM incubated for 48 hrs by Hoechst33342 staining based fluorescent microscopy", "type": "functional, cell-based", "conditions": "dose 7.5-30 nM"}, "[2]": {"experiment": "Induction of mitochondria membrane potential loss in human A-431 cells assessed as red fluorescence intensity at 15 nM incubated 48 hrs by JC-1 probe based flow cytometry analysis (reference value: 93.83%)", "type": "functional"}, "[3]": {"experiment": "Induction of mitochondria membrane potential loss in human A-431 cells assessed as green fluorescence intensity at 15 nM incubated 48 hrs by JC-1 probe based flow cytometry analysis (reference value: 5.98%)", "type": "functional"}, "A-431 [4]": {"system": "A-431", "experiment": "Antiproliferative activity against human A-431 cells assessed as reduction in cell viability incubated for 72 hrs by MTT assay", "type": "functional, cell-based", "conditions": "A-431, 72 h"}, "HCT-8 [5]": {"system": "HCT-8", "experiment": "Antiproliferative activity against human HCT-8 cells assessed as reduction in cell viability incubated for 72 hrs by MTT assay", "type": "functional, cell-based", "conditions": "Homo sapiens, HCT-8, 72 h; read-out: IC50"}, "H22 [6]": {"system": "H22", "experiment": "Antiproliferative activity against mouse H22 cells assessed as reduction in cell viability incubated for 72 hrs by MTT assay", "type": "functional, cell-based", "conditions": "H22, 72 h"}, "[7]": {"experiment": "Resistant index, ratio of IC50 for ADR-resistant human Bel-7402 cells to IC50 for human Bel-7402 cells", "type": "functional"}, "HCT-8 [8]": {"system": "HCT-8", "experiment": "Antiproliferative activity against taxol-resistant human HCT-8 cells assessed as reduction in cell viability incubated for 72 hrs by MTT assay", "type": "functional, cell-based", "conditions": "Homo sapiens, HCT-8, 72 h; read-out: IC50"}, "[9]": {"experiment": "Resistant index, ratio of IC50 for taxol-resistant human HCT-8 cells to IC50 for human HCT-8 cells", "type": "functional"}, "K562/VCR": {"system": "K562/VCR", "experiment": "Antiproliferative activity against VCR resistant human K562/VCR cells assessed as reduction in cell viability incubated for 72 hrs by MTT assay", "type": "functional, cell-based", "conditions": "Homo sapiens, K562/VCR, 72 h; read-out: IC50"}, "[10]": {"experiment": "Resistant index, ratio of IC50 for VCR resistant human K562 cells to IC50 for human K562 cells", "type": "functional"}, "[11]": {"experiment": "Aqueous solubility of the compound in phosphate buffer at pH 7.4 by HPLC-UV analysis", "type": "physicochemical"}, "A-431 [12]": {"system": "A-431", "experiment": "Anti-microtubule activity in human A-431 cells assessed as disruption of microtubule network at 7.5 to 30 nM incubated for 24 hrs by DAPI staining based confocal microscopic analysis", "type": "functional, cell-based", "conditions": "dose 7.5-30 nM"}, "A-431 [13]": {"system": "A-431", "experiment": "Anti-microtubule activity in human A-431 cells assessed as cell membrane rounding at 7.5 to 30 nM incubated for 24 hrs by DAPI staining based confocal microscopic analysis", "type": "functional", "conditions": "dose 7.5-30 nM"}, "A-431 [14]": {"system": "A-431", "experiment": "Induction of cell cycle arrest in human A-431 cells assessed as accumulation at G1 phase at 7.5 nM after 48 hrs by propidium iodide staining based flow cytometry (reference value: 41.16%)", "type": "functional"}, "A-431 [15]": {"system": "A-431", "experiment": "Induction of cell cycle arrest in human A-431 cells assessed as accumulation at S phase at 7.5 nM after 48 hrs by propidium iodide staining based flow cytometry (reference value: 46.57%)", "type": "functional"}, "A-431 [16]": {"system": "A-431", "experiment": "Induction of cell cycle arrest in human A-431 cells assessed as accumulation at G2 phase at 7.5 nM after 48 hrs by propidium iodide staining based flow cytometry (reference value: 7.27%)", "type": "functional"}, "A-431 [17]": {"system": "A-431", "experiment": "Induction of cell cycle arrest in human A-431 cells assessed as accumulation at S phase at 15 nM after 48 hrs by propidium iodide staining based flow cytometry (reference value: 46.57%)", "type": "functional"}, "A-431 [18]": {"system": "A-431", "experiment": "Induction of cell cycle arrest in human A-431 cells assessed as accumulation at G1 phase at 30 nM after 48 hrs by propidium iodide staining based flow cytometry (reference value: 41.16%)", "type": "functional"}, "A-431 [19]": {"system": "A-431", "experiment": "Induction of cell cycle arrest in human A-431 cells assessed as accumulation at G2 phase at 30 nM after 48 hrs by propidium iodide staining based flow cytometry (reference value: 7.27%)", "type": "functional"}, "A-431 [20]": {"system": "A-431", "experiment": "Induction of apoptosis in human A-431 cells assessed as viable cells at 7.5 nM after 48 hrs by Annexin-V-APC/PI-staining based flow cytometric analysis (reference value: 93.37%)", "type": "functional", "conditions": "read-out: Activity"}, "A-431 [21]": {"system": "A-431", "experiment": "Induction of apoptosis in human A-431 cells assessed as early apoptotic cells at 7.5 nM after 48 hrs by Annexin-V-APC/PI-staining based flow cytometric analysis (reference value: 0.82%)", "type": "functional"}, "A-431 [22]": {"system": "A-431", "experiment": "Induction of apoptosis in human A-431 cells assessed as viable cells at 15 nM after 48 hrs by Annexin-V-APC/PI-staining based flow cytometric analysis (reference value: 93.37%)", "type": "functional", "conditions": "read-out: Activity"}, "A-431 [23]": {"system": "A-431", "experiment": "Induction of apoptosis in human A-431 cells assessed as viable cells at 30 nM after 48 hrs by Annexin-V-APC/PI-staining based flow cytometric analysis (reference value: 93.37%)", "type": "functional", "conditions": "read-out: Activity"}, "A-431 [24]": {"system": "A-431", "experiment": "Induction of apoptosis in human A-431 cells assessed as early apoptotic cells at 30 nM after 48 hrs by Annexin-V-APC/PI-staining based flow cytometric analysis (reference value: 0.82%)", "type": "functional"}, "[25]": {"experiment": "Induction of mitochondria membrane potential loss in human A-431 cells assessed as red fluorescence intensity at 30 nM incubated for 48 hrs by JC-1 probe based flow cytometry analysis (reference value: 93.83%)", "type": "functional"}, "[26]": {"experiment": "Metabolic stability in rat plasma assessed as parent compound remaining at 100 nM measured after 60 mins by HPLC analysis", "type": "ADME, cell-free", "conditions": "1 h, 0.1 µM"}, "[27]": {"experiment": "Toxicity in ICR mouse xenografted with […] cells assessed as effect on body weight at 20 mg/kg/day, iv for 21 days", "type": "organism-based", "conditions": "in vivo, 504 h, time 21 day"}, "HUVEC [28]": {"system": "HUVEC", "experiment": "Antivascular activity in HUVEC assessed as inhibition of capillary like tube formation at 30 nM incubated for 6 hrs by matrigel based inverted fluorescence microscopic analysis", "type": "functional, cell-based", "conditions": "Homo sapiens"}, "H22 [29]": {"system": "H22", "experiment": "Antitumor activity against […] xenografted in ICR mouse assessed as reduction in tumor growth at 20 mg/kg/day, iv for 21 days", "type": "functional, organism-based", "conditions": "time 21.0 day"}, "HUVEC [30]": {"system": "HUVEC", "experiment": "Antivascular activity in HUVEC assessed as inhibition of migration activity at 30 nM measured after 24 hrs by wound healing based phase contrast microscopic analysis", "type": "functional, cell-based", "conditions": "Homo sapiens"}, "HUVEC [31]": {"system": "HUVEC", "experiment": "Cytotoxicity against HUVEC incubated for 6 hrs by inverted microscopic analysis", "type": "cell-based", "conditions": "Homo sapiens"}, "HepG2": {"system": "HepG2", "experiment": "cells", "conditions": "Homo sapiens, HepG2, 72 h"}, "K562": {"system": "K562", "experiment": "cells", "conditions": "Homo sapiens, K562, 72 h", "description": "Antiproliferative activity against human K562 cells assessed as reduction in cell viability incubated for 72 hrs by MTT assay"}}, "note": "Activity calls are given as the source filed them. The calls are words filed in the database; no cut-off is given here.", "data": [{"molecule": "COc1ccc(CNC(=O)c2cc(F)ccc2N2CCOCC2)cc1O", "values": [{"measurement": "Activity", "setting": "A-431 [1]", "value": "Active"}, {"measurement": "Activity", "setting": "[2]", "value": 54.43, "unit": "%"}, {"measurement": "Activity", "setting": "[3]", "value": 45.4, "unit": "%"}, {"measurement": "IC50", "setting": "A-431 [4]", "value": 14, "unit": "nM"}, {"measurement": "IC50", "setting": "HCT-8 [5]", "value": 20, "unit": "nM"}, {"measurement": "IC50", "setting": "H22 [6]", "value": 24, "unit": "nM"}, {"measurement": "Ratio IC50", "setting": "[7]", "value": 3.9}, {"measurement": "IC50", "setting": "HCT-8 [8]", "value": 106, "unit": "nM"}, {"measurement": "Ratio IC50", "setting": "[9]", "value": 5.3}, {"measurement": "IC50", "setting": "K562/VCR", "value": 205, "unit": "nM"}, {"measurement": "Ratio IC50", "setting": "[10]", "value": 10.8}, {"measurement": "solubility", "setting": "[11]", "value": 76.6, "unit": "µg/mL"}, {"measurement": "Activity", "setting": "A-431 [12]", "value": "Active"}, {"measurement": "Activity", "setting": "A-431 [13]", "value": "Active"}, {"measurement": "Activity", "setting": "A-431 [14]", "value": 46.14, "unit": "%"}, {"measurement": "Activity", "setting": "A-431 [15]", "value": 40.02, "unit": "%"}, {"measurement": "Activity", "setting": "A-431 [16]", "value": 13.84, "unit": "%"}, {"measurement": "Activity", "setting": "A-431 [17]", "value": 22.59, "unit": "%"}, {"measurement": "Activity", "setting": "A-431 [18]", "value": 56.41, "unit": "%"}, {"measurement": "Activity", "setting": "A-431 [19]", "value": 24.95, "unit": "%"}, {"measurement": "viability at 0.0075 µM", "setting": "A-431 [20]", "value": 71, "unit": "%"}, {"measurement": "Activity", "setting": "A-431 [21]", "value": 11.52, "unit": "%"}, {"measurement": "viability at 0.015 µM", "setting": "A-431 [22]", "value": 45.4, "unit": "%"}, {"measurement": "viability at 0.03 µM", "setting": "A-431 [23]", "value": 26.5, "unit": "%"}, {"measurement": "Activity", "setting": "A-431 [24]", "value": 34.02, "unit": "%"}, {"measurement": "Activity", "setting": "[25]", "value": 33.88, "unit": "%"}, {"measurement": "Stabilty", "setting": "[26]", "value": "Stable"}, {"measurement": "Activity", "setting": "[27]", "value": "Non-Toxic"}, {"measurement": "Activity", "setting": "HUVEC [28]", "value": "Active"}, {"measurement": "Activity", "setting": "H22 [29]", "value": "Active"}, {"measurement": "Activity", "setting": "HUVEC [30]", "value": "Active"}, {"measurement": "IC50", "setting": "HUVEC [31]", "value": 120, "unit": "nM"}, {"measurement": "IC50", "setting": "HepG2", "value": 25, "unit": "nM"}, {"measurement": "IC50", "setting": "K562", "value": 19, "unit": "nM"}]}]}
